# In US7781465B2, “Therapeutic oxazolidinones and thiazolidinones” (Allergan, Inc., priority 2007, dated 2010):
# Key:
# hEP3A = target: T1, hEP3A (Homo sapiens, UniProt P43115); test: Other receptors functional assay, hEP3A; assay type: cell-based
# T1 sequence (P43115 1-390): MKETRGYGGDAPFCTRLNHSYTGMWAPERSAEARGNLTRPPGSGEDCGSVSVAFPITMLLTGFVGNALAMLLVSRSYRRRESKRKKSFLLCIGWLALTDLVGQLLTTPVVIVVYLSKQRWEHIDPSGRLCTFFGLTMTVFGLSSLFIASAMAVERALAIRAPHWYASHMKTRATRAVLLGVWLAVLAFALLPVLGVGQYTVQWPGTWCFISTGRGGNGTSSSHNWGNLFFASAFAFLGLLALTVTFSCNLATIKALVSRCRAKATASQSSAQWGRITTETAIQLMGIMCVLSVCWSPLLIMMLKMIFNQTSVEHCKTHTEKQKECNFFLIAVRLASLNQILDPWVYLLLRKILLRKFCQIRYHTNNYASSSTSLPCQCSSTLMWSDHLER
# From the text: (§1) U.S. Patent Application Publication No. 20070129552, incorporated by reference herein, describes the methods used to obtain the in vitro data in the table below.
# hDP = target: T2, hDP (Homo sapiens, UniProt Q13258); test: Other receptors functional assay, hDP; assay type: cell-based
# T2 sequence (Q13258 1-359): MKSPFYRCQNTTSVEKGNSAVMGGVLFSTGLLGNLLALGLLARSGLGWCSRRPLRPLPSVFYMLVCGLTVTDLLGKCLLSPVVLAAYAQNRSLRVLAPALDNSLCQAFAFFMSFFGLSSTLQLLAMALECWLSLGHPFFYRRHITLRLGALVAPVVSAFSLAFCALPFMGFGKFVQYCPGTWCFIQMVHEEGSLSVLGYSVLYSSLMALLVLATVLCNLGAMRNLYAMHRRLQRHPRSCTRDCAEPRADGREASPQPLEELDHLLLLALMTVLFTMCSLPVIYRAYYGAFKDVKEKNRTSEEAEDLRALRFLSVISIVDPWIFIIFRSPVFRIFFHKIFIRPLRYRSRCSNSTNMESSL
# From the text: as §1
# EP2 [1] = target: T3, EP2 (Homo sapiens, UniProt P43116); test: EP2 flipr functional assay; assay type: cell-based
# T3 sequence (P43116 whole entry): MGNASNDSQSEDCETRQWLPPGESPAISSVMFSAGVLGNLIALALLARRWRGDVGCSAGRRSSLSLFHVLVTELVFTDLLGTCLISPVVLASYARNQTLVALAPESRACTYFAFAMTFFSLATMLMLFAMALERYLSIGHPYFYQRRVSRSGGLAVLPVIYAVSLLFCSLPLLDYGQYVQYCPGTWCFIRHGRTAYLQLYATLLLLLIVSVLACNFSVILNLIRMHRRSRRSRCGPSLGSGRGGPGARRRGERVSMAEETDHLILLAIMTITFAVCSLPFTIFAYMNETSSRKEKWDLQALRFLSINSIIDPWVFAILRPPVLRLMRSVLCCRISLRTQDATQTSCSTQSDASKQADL
# From the text: as §1
# EP4 [2] = target: T4, EP4 (Homo sapiens, UniProt P35408); test: EP4 binding (Ki)
# T4 sequence (P35408 whole entry): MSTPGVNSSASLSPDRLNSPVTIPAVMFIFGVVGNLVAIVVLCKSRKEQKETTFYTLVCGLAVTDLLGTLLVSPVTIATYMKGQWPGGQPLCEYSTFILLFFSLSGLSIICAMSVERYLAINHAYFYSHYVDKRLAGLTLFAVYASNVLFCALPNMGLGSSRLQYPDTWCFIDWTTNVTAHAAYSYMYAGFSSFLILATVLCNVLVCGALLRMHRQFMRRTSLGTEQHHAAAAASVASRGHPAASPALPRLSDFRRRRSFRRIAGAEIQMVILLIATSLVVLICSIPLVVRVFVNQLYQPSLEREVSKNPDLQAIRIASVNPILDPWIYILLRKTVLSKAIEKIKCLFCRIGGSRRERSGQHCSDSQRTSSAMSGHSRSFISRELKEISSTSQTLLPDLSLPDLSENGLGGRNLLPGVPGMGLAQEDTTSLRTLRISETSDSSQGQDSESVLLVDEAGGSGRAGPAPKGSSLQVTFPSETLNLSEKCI
# From the text: as §1
# EP2 [3] = target: T3, EP2; test: EP2 binding (Ki)
# From the text: as §1
# EP4 [4] = target: T4, EP4; test: EP4 flipr functional assay; assay type: cell-based
# From the text: as §1
# normotensive dogs [5] = test: Intraocular pressure in normotensive dogs; assay type: in vivo, dog; details: 0.003%, once daily for 5 days, at 54 h
# Protocol: (§2) U.S. Pat. No. 7,183,324 describes the methods used to obtain the in vitro results presented below.
# (§3) Isopropyl 5-(3-((R)-3-(4-((S)-1-hydroxyhexyl)phenyl)-4-oxooxazolidin-2-yl)propyl)thiophene-2-carboxylate (12j) was tested in normotensive dogs at 0.003%, dosing once daily for 5 days. The maximum intraocular pressure (IOP) decrease from baseline was 5.4 mmHg (36%) at 54 h; the maximum ocular surface hyperemia (OSH) score was 1.75 at 50 h.
# normotensive dogs [6] = test: Ocular surface hyperemia in normotensive dogs; assay type: in vivo, dog; details: 0.003%, once daily for 5 days, at 50 h
# Protocol: as §2, §3
Compound,EC50 (hEP3A) [nM],EC50 (hDP) [nM],EC50 (EP2 [1]) [nM],Ki (EP4 [2]) [nM],Ki (EP2 [3]) [nM],EC50 (EP4 [4]) [nM],maximum intraocular pressure (IOP) decrease from baseline (normotensive dogs [5]) [mmHg],"maximum intraocular pressure (IOP) decrease from baseline, percent (normotensive dogs [5]) [%]",maximum ocular surface hyperemia (OSH) score (normotensive dogs [6])
"CCCCC[C@H](O)c1ccc(N2C(=O)CO[C@H]2CCCc2ccc(C(=O)O)s2)cc1 (single isomer, unassigned) [Example 3]",268,1970,82,> 10000,90,–,–,–,–
"CCCCC[C@H](O)c1ccc(N2C(=O)CO[C@@H]2CCCc2ccc(C(=O)O)s2)cc1 (single isomer, unassigned) [Example 4]",4,73,1.2,> 10000,7,–,–,–,–
"CCCCCC(O)c1ccc(N2C(=O)CSC2CCCc2ccc(C(=O)O)s2)cc1 (stereo not drawn) [Example 1, 5-(3-(3-(4-(1-hydroxyhexyl)phenyl)-4-oxo-thiazolidin-2-yl)propyl)thiophene-2-carboxylic acid]",8320,–,4400,1460,17500,> 10000,–,–,–
"CCCCCC(O)c1ccc(N2C(=O)COC2CCCc2ccc(C(=O)O)s2)cc1 (stereo not drawn) [Example 2, 5-(3-(3-(4-(1-hydroxyhexyl)phenyl)-4-oxo-oxazolidin-2-yl)propyl)thiophene-2-carboxylic acid]",11,213,8,> 10000,14,–,–,–,–
"CCCCCCc1ccc(N2C(=O)COC2CCCc2ccc(C(=O)O)s2)cc1 (stereo not drawn) [Example 8, 5-(3-(3-(4-hexylphenyl)-4-oxooxazolidin-2-yl)propyl)thiophene-2-carboxylic acid]",237,656,37,2130,3,12600,–,–,–
"O=C(O)c1ccc(CCCC2OCC(=O)N2c2ccccc2)s1 (stereo not drawn) [Example 9, 5-(3-(4-oxo-3-phenyloxazolidin-2-yl)propyl)thiophene-2-carboxylic acid]",–,> 10000,3080,> 10000,680,–,–,–,–
"CCCCC[C@H](O)c1ccc(N2C(=O)CO[C@@H]2CCCc2ccc(C(=O)OC(C)C)s2)cc1 [Example 12j, Isopropyl 5-(3-((R)-3-(4-((S)-1-hydroxyhexyl)phenyl)-4-oxooxazolidin-2-yl)propyl)thiophene-2-carboxylate]",–,–,–,–,–,–,5.4,36,1.75
